Reference: ChEMBL document CHEMBL1833808, “Identification of novel BRAF kinase inhibitors with structure-based virtual screening” (Bioorg Med Chem Lett, 2011)

Target: Serine/threonine-protein kinase B-raf (Homo sapiens, UniProt P15056)
Experiment: Inhibition of BRAF

Sequence of Serine/threonine-protein kinase B-raf (P15056 whole entry): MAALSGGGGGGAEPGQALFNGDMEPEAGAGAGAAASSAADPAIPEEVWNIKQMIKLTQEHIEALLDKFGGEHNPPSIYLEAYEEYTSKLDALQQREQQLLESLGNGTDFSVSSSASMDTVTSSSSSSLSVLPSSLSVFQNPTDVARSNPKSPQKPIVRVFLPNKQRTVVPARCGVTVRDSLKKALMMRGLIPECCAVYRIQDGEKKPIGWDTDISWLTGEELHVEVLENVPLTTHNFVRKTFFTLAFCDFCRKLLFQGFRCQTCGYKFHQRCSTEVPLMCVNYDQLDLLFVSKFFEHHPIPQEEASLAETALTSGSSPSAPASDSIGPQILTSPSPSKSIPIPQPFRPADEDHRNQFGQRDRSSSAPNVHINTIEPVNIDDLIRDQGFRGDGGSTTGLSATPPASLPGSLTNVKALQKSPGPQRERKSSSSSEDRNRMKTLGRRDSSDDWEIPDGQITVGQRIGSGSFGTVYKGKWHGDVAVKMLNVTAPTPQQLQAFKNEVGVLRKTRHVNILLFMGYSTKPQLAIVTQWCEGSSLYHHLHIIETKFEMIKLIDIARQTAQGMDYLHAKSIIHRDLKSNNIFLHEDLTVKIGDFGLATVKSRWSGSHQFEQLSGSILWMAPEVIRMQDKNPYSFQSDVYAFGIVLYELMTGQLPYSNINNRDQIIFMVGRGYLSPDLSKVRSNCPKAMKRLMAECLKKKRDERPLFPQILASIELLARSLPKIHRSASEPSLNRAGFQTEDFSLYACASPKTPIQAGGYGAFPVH

Compound | Kd
NC(=O)c1ccc(Nc2nnc(-c3ccc(O)cc3)c3ccccc23)cc1 | 2.1 µM
CCOC(=O)c1cccc(Nc2nc(N)nc3[nH]cnc23)c1 | 0.7 µM
Cc1ccc(/C=C/c2nc(N)nc(-c3ccccc3O)n2)o1 | 20 µM
O=C1N/C(=N\c2ccc(O)cc2)S/C1=C\c1c[nH]c2ccccc12 | 18.5 µM
Cc1ccc(CNC(=O)c2c(N)n(-c3cccc(O)c3)c3nc4ccccc4nc23)cc1 | 12.6 µM
